Source: publication PMC3314626, “Crystal Structures of the Tetratricopeptide Repeat Domains of Kinesin Light Chains: Insight into Cargo Recognition Mechanisms” (PLoS ONE, 2012)
“Also recorded” adds a separate entry of the source. Read-outs that look alike come from different tables or passages of the source. Values belong to the compound of their own block, whether it stands above or below them.

What was measured:
KLC1-N343S = biological target: T1, KLC1-N343S (Homo sapiens, UniProt Q07866, N343S); assay: ITC binding of JIP1 or ALC1 peptide to KLC1-N343S mutant; conditions: 25°C; for ΔS / N (binding stoichiometry) / Kd / ΔH: one-site model, N.B = no binding was observed; for N (binding stoichiometry) / Kd / ΔH: ± SD from fit; for ΔH: peptide 1–3 mM into chamber, 20 mM Bis-Tris pH 6.5, 500 mM NaCl, 0.5 mM TCEP
T1 construct: KLC1-TPR (residues 228–495, genbank: NP_005543); made in house; host or cells: E. coli BL21(DE3)-CodonPlus-RIL
Experimental: (§1) DNAs encoding the TPR domains of KLC1-TPR (residues 228–495, genbank: NP_005543) and KLC2-TPR (residues 217–480, genbank: NP_073733) were amplified by polymerase chain reaction (PCR) using cDNAs obtained from the Mammalian Gene Collection as templates. The PCR products were cloned into a modified version of the expression plasmid pET28-LIC (genbank: EF442785) using an Infusion cloning kit (ClonTech). The KLC1-N343S and KLC2-S328N mutants were prepared with a QuickChange® kit (Stratagene).
(§2) Binding affinities of the JIP1 peptide (Ac-EYTCPTEDIYLE-COOH), ALC1peptide (Ac-EMDWDDSALT-COOH) (synthesized by Tufts University Core Facility), and ALC1 protein to the KLC1-TPR, KLC2-TPR and their mutants were measured by isothermal titration calorimetry (ITC) (VP-ITC microcalorimeter, MicroCal Inc.). Measurements were performed at 25°C by injecting 5–10 µl of peptide solution (1–3 mM) into a sample chamber containing 60–130 µM KLC1-TPR or KLC2-TPR in 20 mM Bis-Tris, pH 6.5, 500 mM sodium chloride, and 0.5 mM TCEP. For the protein-protein interaction, the sample chamber contained 15 µM of KLC1-TPR and 160 µM of the ALC1 protein in a buffer containing 30 mM HEPES 7.4, 200 mM NaCl, 0.5 mM TCEP. The syringe injections containing peptides and proteins were dissolved and dialyzed in the same buffer as the KLC proteins prior to the experiments. A total of 25 injections were performed with an interval of 300 seconds and a reference power of 13 µcal/second. The heat of dilution was controlled with binding isotherms from reference injections containing the peptide alone prior to fitting of the data. ITC data were analyzed using Origin software (MicroCal Inc) and were fit using a one-site binding model.

KLC2-TPR = biological target: T2, KLC2-TPR (Homo sapiens, UniProt Q9H0B6); assay: ITC binding of JIP1 peptide to KLC2-TPR; conditions: 25°C
T2 construct: KLC2-TPR (residues 217–480, genbank: NP_073733); made in house; host or cells: E. coli BL21(DE3)-CodonPlus-RIL
Experimental: as §1, §2

KLC1-TPR [1] = biological target: T3, KLC1-TPR (Homo sapiens, UniProt Q07866); assay: ITC binding of JIP1 or ALC1 peptide to KLC1-TPR; conditions: 25°C; for Kd / ΔH: 20 mM Bis-Tris pH 6.5, 500 mM NaCl, 0.5 mM TCEP; for Kd: Kd determined from Ka of one-site fit, Table 3; for Kd / N (binding stoichiometry) / ΔH: ± SD from fit; for ΔS / N (binding stoichiometry): pH 6.5, 500 mM NaCl; for ΔS / N (binding stoichiometry) / ΔH: one-site model; for ΔH: peptide 1–3 mM injected into 60–130 µM KLC1-TPR
T3 construct: KLC1-TPR (residues 228–495, genbank: NP_005543); made in house; host or cells: E. coli BL21(DE3)-CodonPlus-RIL
Experimental: as §1, §2

KLC2-S328N = biological target: T4, KLC2-S328N (Homo sapiens, UniProt Q9H0B6, S328N); assay: ITC binding of JIP1 peptide to KLC2-S328N mutant; conditions: 25°C
T4 construct: KLC2-TPR (residues 217–480, genbank: NP_073733); made in house; host or cells: E. coli BL21(DE3)-CodonPlus-RIL
Experimental: as §1, §2

KLC1-N301A = biological target: T5, KLC1-N301A (Homo sapiens, UniProt Q07866, N301A); assay: ITC binding of ALC1 peptide to KLC1-N301A mutant; conditions: 25°C
T5 construct: KLC1-TPR (residues 228–495, genbank: NP_005543); made in house; host or cells: E. coli BL21(DE3)-CodonPlus-RIL
Experimental: as §2
Tryptophans at position 903 and 973 of ALC1 are crucial in binding to KLC1 as their mutation to alanines disrupt the interaction. There are two negatively charged aspartic acids and a polar serine residue adjacent to the tryptophans. Due to the similarities of the ALC1 residues to those of JIP1, the recognition of ALC1 by KLC1-TPR could also involve a “clamping” feature. However, such clamp must be different from the JIP1 binding polar patch as N343 is not required for ALC1 binding. Also, residues lining the ALC1 binding clamp should be conserved between KLC1-TPR and KLC2-TPR as ALC1 can interact with both isoforms. Possible candidates are N301 and N344 residues in the inner helices of TPR3 and TPR4 of KLC1-TPR. N301 extends toward the neighboring helix and interacts with N344, and is adjacent to K340 and Q341. As these residues are conserved in KLC2-TPR, N301 of KLC1-TPR was mutated into an alanine (KLC1-N301A) and tested its binding behavior towards ALC1 peptide. […] Together, N301 of KLC1-TPR plays an important role in binding of ALC1, probably by forming one of the ALC1 binding clamps.

KLC1-TPR [2] = biological target: T3, KLC1-TPR; assay: ITC binding of cytosolic domain of ALC1 protein to KLC1-TPR
Experimental: as §1, §2
In order to elucidate a comprehensive view of ALC1 binding to KLC isoforms, the cytosolic domain of ALC1 was purified for the ITC binding studies. […] This would cause the modest increase in binding affinity to KLC1-TPR, compared to the ALC1 peptide. […]

[3] = pH 6.5, 500 mM NaCl, N.B = no binding was observed
[4] = pH 6.5, 500 mM NaCl, one-site model
[5] = pH 6.5, 500 mM NaCl, one-site model, ± SD from fit
[6] = peptide 1–3 mM into chamber, 20 mM Bis-Tris pH 6.5, 500 mM NaCl, 0.5 mM TCEP, one-site model, ± SD from fit

T2 sequence (Q9H0B6 217-480): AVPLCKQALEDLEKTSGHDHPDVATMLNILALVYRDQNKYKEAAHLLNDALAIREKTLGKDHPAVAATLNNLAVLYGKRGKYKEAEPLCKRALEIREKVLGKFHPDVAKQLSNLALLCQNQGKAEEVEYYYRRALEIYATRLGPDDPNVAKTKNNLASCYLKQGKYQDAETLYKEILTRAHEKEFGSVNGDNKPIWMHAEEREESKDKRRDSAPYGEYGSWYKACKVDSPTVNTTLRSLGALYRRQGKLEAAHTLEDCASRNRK
T5 sequence (Q07866 228-495 N301A): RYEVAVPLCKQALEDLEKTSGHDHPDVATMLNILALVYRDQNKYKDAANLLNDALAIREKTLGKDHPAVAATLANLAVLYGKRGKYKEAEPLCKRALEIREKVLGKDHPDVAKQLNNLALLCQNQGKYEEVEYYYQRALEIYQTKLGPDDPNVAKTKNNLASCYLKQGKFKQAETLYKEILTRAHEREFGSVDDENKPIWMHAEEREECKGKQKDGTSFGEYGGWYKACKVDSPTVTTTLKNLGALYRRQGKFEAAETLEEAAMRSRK
T4 sequence (Q9H0B6 217-480 S328N): as the sequence (Q9H0B6 217-480) above, with S112N counted along it
T1 sequence (Q07866 228-495 N343S): as the sequence (Q07866 228-495 N301A) above, with A74N, N116S counted along it
T3 sequence (Q07866 228-495): as the sequence (Q07866 228-495 N301A) above, with A74N counted along it

ability to bind (in words) (KLC1-N343S; pH 6.5, 500 mM NaCl): lost the ability to bind
ΔS (KLC1-N343S; pH 6.5, 500 mM NaCl): N.B
N (binding stoichiometry) (KLC1-N343S; pH 6.5, 500 mM NaCl): N.B
Kd (KLC1-N343S; pH 6.5, 500 mM NaCl, Table 3): N.B
ΔH (KLC1-N343S): N.B
Kd (KLC2-TPR; [3]): N.B
N (binding stoichiometry) (KLC2-TPR; [3]): N.B
ΔS (KLC2-TPR; [3]): N.B
ΔH (KLC2-TPR; peptide 1–3 mM into 60–130 µM KLC2-TPR, 20 mM Bis-Tris pH 6.5, 500 mM NaCl, 0.5 mM TCEP, N.B = no binding was observed): N.B
Kd (KLC1-TPR [1]): 9.4 ± 5.85 µM
ΔS (KLC1-TPR [1]): 17.9 eu
N (binding stoichiometry) (KLC1-TPR [1]): 1.02±0.1
interaction with KLC1-TPR (in words) (KLC1-TPR [1]; pH 6.5, Figure S3A): specifically binds to KLC1-TPR
ΔH (KLC1-TPR [1]): -1.52 ± 0.182 kcal/mol
ability to bind (in words) (KLC2-S328N; pH 6.5, 500 mM NaCl): gained binding capacity
ΔS (KLC2-S328N; [4]): −31.8 eu
N (binding stoichiometry) (KLC2-S328N; [5]): 1.18±0.01
ΔH (KLC2-S328N; [6]): -15.9 ± 1.6 kcal/mol
Compound: CC[C@H](C)[C@H](NC(=O)[C@H](CC(=O)O)NC(=O)[C@H](CCC(=O)O)NC(=O)[C@@H](NC(=O)[C@@H]1CCCN1C(=O)[C@H](CS)NC(=O)[C@@H](NC(=O)[C@H](Cc1ccc(O)cc1)NC(=O)[C@H](CCC(=O)O)NC(C)=O)[C@@H](C)O)[C@@H](C)O)C(=O)N[C@@H](Cc1ccc(O)cc1)C(=O)N[C@@H](CC(C)C)C(=O)N[C@@H](CCC(=O)O)C(=O)O [JIP1 peptide, Ac-EYTCPTEDIYLE-COOH]
interaction with KLC2-TPR (in words) (KLC2-TPR; pH 6.5, 500 mM NaCl): no interaction was detected; also recorded: not to KLC2-TPR

affinity compared with wild type KLC1 (in words) (KLC1-N301A; pH 6.5, 500 mM NaCl): lower affinity than the wild type KLC1
ΔS (KLC1-N301A; [4]): 12.9 eu
N (binding stoichiometry) (KLC1-N301A; [5]): 1.02
Kd (KLC1-N301A; pH 6.5, 500 mM NaCl, one-site model, ± SD from fit, Table 3): 179 ± 127 µM
N (binding stoichiometry) (KLC1-N301A; pH 6.5, 500 mM NaCl, one-site model, ± SD from fit, listed as ALC1): 1.02±0.69
ΔH (KLC1-N301A; [6]): -1.2 ± 0.99 kcal/mol
ΔS (KLC1-N343S; pH 6.5, 500 mM NaCl): 14.1 eu
N (binding stoichiometry) (KLC1-N343S; pH 6.5, 500 mM NaCl): 2.13
Kd (KLC1-N343S; pH 6.5, 500 mM NaCl, Table 3, read-out: Kd): 44.3 ± 7.5 µM
N (binding stoichiometry) (KLC1-N343S; pH 6.5, 500 mM NaCl, listed as ALC1): 2.13±0.15
ΔH (KLC1-N343S): -1.7 ± 0.16 kcal/mol
Kd (KLC1-TPR [1]): 50.3 ± 3.1 µM
ΔS (KLC1-TPR [1]): 11.4 eu
N (binding stoichiometry) (KLC1-TPR [1]): 1.85
N (binding stoichiometry) (KLC1-TPR [1]; listed as ALC1): 1.85±0.04
ΔH (KLC1-TPR [1]): -2.5 ± 0.07 kcal/mol
Compound: Ac-EMDWDDSALT-OH [ALC1 peptide, Ac-EMDWDDSALT-COOH]

Kd (KLC1-TPR [2]; 25°C, 15 µM KLC1-TPR, 160 µM ALC1 protein, 30 mM HEPES 7.4, 200 mM NaCl, 0.5 mM TCEP, one-site model): 2400 nM
binding stoichiometry (KLC1-TPR [2]; 25°C, 30 mM HEPES 7.4, 200 mM NaCl, 0.5 mM TCEP, one-site model): 0.85
affinity compared with the ALC1 peptide (in words) (KLC1-TPR [2]; KLC1-TPR): higher affinity than the ALC1 peptide
Compound: cytosolic domain of ALC1: purified cytosolic domain of ALC1, containing two KLC1-binding motifs (residues 893–896 and 964–967)
